Reference: ChEMBL document CHEMBL1149881, “Syntheses of 4,6'-epoxymorphinan derivatives and their pharmacologies” (Bioorg Med Chem, 2008)
Calls of active or inactive are those of the source. The rule behind the calls is not given here.

Tests used:
[1] = target: Delta-type opioid receptor (Mus musculus, UniProt P32300); assay: Displacement of [3H]DPDPE from delta opioid receptor in ICR mouse whole brain
[2] = target: Kappa-type opioid receptor (Cavia porcellus, UniProt P41144); assay: Displacement of [3H]U69593 from kappa opioid receptor in guinea pig cerebellum
[3] = target: Kappa-type opioid receptor (Cavia porcellus) (UniProt P41144); assay: Inhibition of kappa opioid receptor-mediated U50488 induced activation of G-Protein in guinea pig cerebellum at 0.1 to 1 uM by [35S]GTPgammaS binding; type: functional, tissue-based
Mu-type opioid receptor = Mu-type opioid receptor (Mus musculus, UniProt P42866); assay: Displacement of [3H]DAMGO from mu opioid receptor in ICR mouse whole brain
[4] = target: Mu-type opioid receptor (Mus musculus) (UniProt P42866); assay: Inhibition of mu opioid receptor-mediated DAMGO induced activation of G-Protein in ICR mouse brain at 0.1 to 1 uM by [35S]GTPgammaS binding; type: functional
[5] = target: Delta-type opioid receptor (Mus musculus) (UniProt P32300); assay: Inhibition of delta opioid receptor-mediated SNC80 induced activation of G-Protein in ICR mouse brain at 0.1 to 1 uM by [35S]GTPgammaS binding; type: functional, tissue-based
Mus musculus [6] = assay: Antinociceptive activity against sc dosed ICR mouse by hot plate method; type: functional, organism-based
[7] = target: Mu-type opioid receptor (Mus musculus) (UniProt P42866); assay: Activation of mu opioid receptor-mediated G-protein activation in ICR mouse whole brain at 10 uM by [35S]GTPgammaS binding in presence of Beta-FNA; type: functional
Mus musculus [8] = assay: Antinociceptive activity against sc dosed ICR mouse by tail flick method; type: functional, organism-based

Chain of Mu-type opioid receptor (Mus musculus) (P42866 whole entry): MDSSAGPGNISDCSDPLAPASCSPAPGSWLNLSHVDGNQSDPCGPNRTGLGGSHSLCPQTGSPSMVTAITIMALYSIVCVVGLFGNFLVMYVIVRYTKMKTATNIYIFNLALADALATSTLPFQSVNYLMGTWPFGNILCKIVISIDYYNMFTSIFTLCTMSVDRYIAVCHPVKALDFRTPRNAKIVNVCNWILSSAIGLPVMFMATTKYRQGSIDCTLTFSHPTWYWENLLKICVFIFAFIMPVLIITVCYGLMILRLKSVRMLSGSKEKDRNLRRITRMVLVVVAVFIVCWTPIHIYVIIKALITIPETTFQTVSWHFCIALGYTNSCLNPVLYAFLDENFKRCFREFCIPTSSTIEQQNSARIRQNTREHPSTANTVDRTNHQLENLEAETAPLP
Chain of Delta-type opioid receptor (P32300 whole entry): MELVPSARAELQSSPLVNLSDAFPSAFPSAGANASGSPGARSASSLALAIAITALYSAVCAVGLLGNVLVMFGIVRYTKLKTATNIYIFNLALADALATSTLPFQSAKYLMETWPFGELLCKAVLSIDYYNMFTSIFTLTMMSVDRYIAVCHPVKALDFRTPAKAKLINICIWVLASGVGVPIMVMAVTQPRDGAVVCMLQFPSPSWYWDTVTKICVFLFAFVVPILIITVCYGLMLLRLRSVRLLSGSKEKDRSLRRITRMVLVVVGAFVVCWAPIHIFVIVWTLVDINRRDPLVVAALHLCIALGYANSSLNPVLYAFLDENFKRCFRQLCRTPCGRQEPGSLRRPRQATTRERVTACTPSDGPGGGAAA
Chain of Mu-type opioid receptor (P42866 whole entry): as the sequence (P42866 whole entry) above
Chain of Kappa-type opioid receptor (P41144 whole entry): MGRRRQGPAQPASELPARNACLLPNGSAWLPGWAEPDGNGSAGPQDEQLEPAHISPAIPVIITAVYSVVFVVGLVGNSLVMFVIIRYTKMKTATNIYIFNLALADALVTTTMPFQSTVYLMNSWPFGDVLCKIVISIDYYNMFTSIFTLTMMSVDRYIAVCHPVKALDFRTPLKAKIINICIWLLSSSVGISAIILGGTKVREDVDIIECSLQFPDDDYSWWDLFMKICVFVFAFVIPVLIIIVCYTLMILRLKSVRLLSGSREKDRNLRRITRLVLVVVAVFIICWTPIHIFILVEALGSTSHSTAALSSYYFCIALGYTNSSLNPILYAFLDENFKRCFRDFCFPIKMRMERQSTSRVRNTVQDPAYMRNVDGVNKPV
Chain of Delta-type opioid receptor (Mus musculus) (P32300 whole entry): as the sequence (P32300 whole entry) above
Chain of Kappa-type opioid receptor (Cavia porcellus) (P41144 whole entry): as the sequence (P41144 whole entry) above

Q: How did the IC50 [1] turn out when Oc1ccc2c3c1OC[C@H]1CC[C@]4(O)[C@H](C2)N(CC2CC2)CC[C@@]34C1 was run?
A: 0.0573 µM

Q: And the IC50 [2]?
A: 0.00098 µM

Q: What about the Activity [3] of the same compound?
A: Active

Q: And the IC50 (Mu-type opioid receptor)?
A: 0.00121 µM

Q: And the Activity [4]?
A: Active

Q: What about the Activity [5] of the same compound?
A: Active

Q: How did the IC50 [1] turn out when COc1ccc2c3c1OC[C@H]1CC[C@]4(O)[C@H](C2)N(C)CC[C@@]34C1 was run?
A: < 0.5 µM

Q: And the IC50 [2]?
A: < 0.5 µM

Q: And the IC50 (Mu-type opioid receptor)?
A: 0.183 µM

Q: And the Activity [4]?
A: Active

Q: And the Activity (Mus musculus [6])?
A: Dose-dependent effect

Q: What about the Activity [7] of the same compound?
A: inactive

Q: And the Activity (Mus musculus [8])?
A: Dose-dependent effect
